Patent publication US11311544B2, “Treatment of congenital adrenal hyperplasia” (Neurocrine Biosciences, Inc., priority 2014, dated 2022)
Where two headings read alike, the source gives them in different places.

Key:
CRF1 receptor = target: T1, CRF1 receptor (Homo sapiens, UniProt P34998); details: as reported in Fleck et al., cited from earlier work; for Ki: Ki=k−1/k1, read-out: Kinetic Ki; for Dissociation t1/2: t1/2=0.693/k−1
T1 sequence (P34998 24-415): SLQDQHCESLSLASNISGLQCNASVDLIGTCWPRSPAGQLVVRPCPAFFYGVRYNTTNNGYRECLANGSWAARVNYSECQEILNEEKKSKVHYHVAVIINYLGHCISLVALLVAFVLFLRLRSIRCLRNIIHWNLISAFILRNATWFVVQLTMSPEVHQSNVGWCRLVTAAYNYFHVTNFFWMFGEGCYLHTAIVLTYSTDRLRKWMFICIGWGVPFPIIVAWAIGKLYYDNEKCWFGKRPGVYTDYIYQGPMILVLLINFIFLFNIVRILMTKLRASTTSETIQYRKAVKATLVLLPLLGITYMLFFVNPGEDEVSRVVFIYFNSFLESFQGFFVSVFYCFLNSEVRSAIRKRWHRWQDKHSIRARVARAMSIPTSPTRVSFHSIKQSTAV

[1] = tested on: plasma ACTH in adrenalectomized (ADX) rats; details: Fleck et al., cited from earlier work; for effect on plasma ACTH, acute: highest dose 10 mg/kg, 1 hr post-injection, FIG. 3A-C
[2] = tested on: HPA axis response (ACTH) produced by metyrapone; assay: Pharmacodynamic effect of single oral doses on HPA axis response produced by metyrapone in humans; format: in vivo; details: human, metyrapone 0.04 g/kg
[3] = tested on: 17-OHP and ACTH levels (HPA axis hormones); assay: Phase 1 single-dose clinical study in adult females with classical congenital adrenal hyperplasia; format: in vivo, human; details: adult female classical CAH patients, single bedtime doses
Experimental: The study was a single-blind, placebo-controlled, single center, fixed-sequence, single-dose clinical trial in adult female classical CAH patients.
The subjects' usual morning dose of concurrent steroidal treatment was delayed until after the 16-hour postdose blood samples were collected (i.e., until approximately 1400 h).
The PD endpoints for this study included the HPA axis biomarkers of interest in this patient population; namely, 17-hydroxyprogesterone (17-OHP; as the primary PD endpoint), adrenocorticotropic hormone (ACTH), androstenedione, testosterone, and serum cortisol levels. The initial analysis of PD variables was an examination of the grouped subject data for each biomarker, expressed as a mean percent change from predose levels for the two active dosing conditions relative to the placebo condition.
This responder analysis yielded a sizeable responder rate of 50% in the study (none of these subjects were responders during the initial placebo treatment period).

[4] = tested on: plasma ACTH in adrenalectomized (ADX) rats; assay: Lowering of plasma ACTH in adrenalectomized rats; format: in vivo, rat; details: 30 mg/kg single oral dose, FIG. 2
From the text: Adrenalectomy eliminates circulating corticosterone (the primary glucocorticoid) in rats and removes the negative feedback control of the HPA axis at both the hypothalamic and pituitary (corticotroph cells) levels and thus chronically elevates plasma ACTH (see, e.g., Mims et al., J. Natl. Med. Assoc. 69:145-47 (1977)). […] These findings were recapitulated with the small molecule NBI-77860 (Compound I). In adrenalectomized rats, Compound I has potent capability for lowering ACTH.
These findings were recapitulated with the small molecule NBI-77860. […] The duration of efficacy correlated with peak plasma concentrations, with a time course exceeding drug plasma exposure.
Fleck et al. also report the effects of CRF1 receptor antagonists differentiated by their dissociation half-life on plasma ACTH levels in adrenalectomized rats; namely, NBI 30775, NBI 34041 and NBI 35965. […] After a longer duration, a clear difference emerged between NBI 35965 and the other two ligands. The ACTH level returned to the vehicle level by 2 hr for NBI 35965 (FIG. 3C), whereas the response was sustained for 4-6 hr for NBI 30775 and NBI 34041 (FIGS. 3A and 3B).

[5] = Table 2 rate constant used for t1/2

## COCC(COC)Nc1nc(C)nc2c(-c3ccc(Cl)cc3Cl)c(C)nn12 [DMP696]
CRF1 receptor
  Ki: 9.5 nM
  Dissociation t1/2: 7.3 min
CRF1 receptor; [5]
  Rate constant (association k1 or dissociation k−1): 0.095 ± 0.02 min⁻¹
CRF1 receptor; association rate constant
  Rate constant (association k1 or dissociation k−1): 7.7 ± 2 10^6M^−1min^−1

## CCCC(CCC)N1CCn2nc(-c3ccc(Cl)cc3Cl)c3nc(C)cc1c32 [NBI-34041, 3-(2,4-dichlorophenyl)-9-(heptan-4-yl)-6-methyl-1,2,5,9-tetraazatricyclo[6.3.1.0^4,12] dodeca-2,4(12),5,7-tetraene]
CRF1 receptor
  Ki: 1.7 nM
  Dissociation t1/2: 53 min
CRF1 receptor; [5]
  Rate constant (association k1 or dissociation k−1): 0.013 ± 0.002 min⁻¹
CRF1 receptor; association rate constant
  Rate constant (association k1 or dissociation k−1): 8.3 ± 2.0 10^6M^−1min^−1
[1]
  effect on plasma ACTH, acute: reduced ACTH acutely

## CCC(CC)Nc1cc(C)nc2c(-c3ccc(OC)cc3C)c(C)nn12 [DMP904]
CRF1 receptor
  Ki: 0.38 nM
CRF1 receptor; [5]
  Rate constant (association k1 or dissociation k−1): 0.0072 ± 0.002 min⁻¹
CRF1 receptor; association rate constant
  Rate constant (association k1 or dissociation k−1): 18 ± 1 10^6M^−1min^−1

## CCCN(CC1CC1)c1nc(C)nc(Nc2c(Cl)cc(Cl)cc2Cl)c1Cl [NBI-27914]
CRF1 receptor
  Ki: 25 nM
  Dissociation t1/2: 2.6 min
CRF1 receptor; [5]
  Rate constant (association k1 or dissociation k−1): 0.27 ± 0.07 min⁻¹
CRF1 receptor; association rate constant
  Rate constant (association k1 or dissociation k−1): 9.4 ± 3 10^6M^−1min^−1

## CCC(CC)Oc1cc(C)nc(Oc2c(C)cc(C)cc2C)c1C [CP-316,311, 3,6-dimethyl-4-(pentan-3-yloxy)-2-(2,4,6-trimethylphenoxy) pyridine]
CRF1 receptor
  Ki: 12 nM
  Dissociation t1/2: 4.1 min
CRF1 receptor; [5]
  Rate constant (association k1 or dissociation k−1): 0.17 ± 0.04 min⁻¹
CRF1 receptor; association rate constant
  Rate constant (association k1 or dissociation k−1): 13 ± 2 10^6M^−1min^−1

## CCC(CC)Nc1c2c(nc3c(-c4ccc(OC)cc4Cl)c(C)nn13)CCC2 [ONO-2333Ms, 10-(2-chloro-4-methoxyphenyl)-11-methyl-N-(pentan-3-yl)-1,8,12-triazatricyclo[7.3.0.0^3,7] dodeca-2,7,9,11-tetraen-2-amine]
CRF1 receptor
  Ki: 15 nM
  Dissociation t1/2: 17 min
CRF1 receptor; [5]
  Rate constant (association k1 or dissociation k−1): 0.063 ± 0.029 min⁻¹
CRF1 receptor; association rate constant
  Rate constant (association k1 or dissociation k−1): 4.4 ± 2.2 10^6M^−1min^−1

## CCCN(CCC)c1cc(C)nc2c(-c3cnc(N(C)C)cc3C)c(C)nn12 [NBI-30775, 5-[7-(dipropylamino)-2,5-dimethylpyrazolo[1,5-a]pyrimidin-3-yl]-N,N,4-trimethylpyridin-2-amine]
CRF1 receptor; [5]
  Rate constant (association k1 or dissociation k−1): 0.0054 ± 0.0006 min⁻¹
CRF1 receptor; association rate constant
  Rate constant (association k1 or dissociation k−1): 14 ± 2.0 10^6M^−1min^−1
[1]
  effect on plasma ACTH, acute: reduced ACTH acutely

## CC[C@H](Nc1cc(C)nc2c(-c3ccc(OC)cc3C)c(C)nn12)c1nc(C)no1 [NBI-77860, 2,5-dimethyl-3-[2-methyl-4-(methyloxy)phenyl]-N-[(1S)-1-(3-methyl-1,2,4-oxadiazol-5-yl)propyl]pyrazolo[1,5-a]pyrimidin-7-amine]
[2]; single oral dose 10 mg
  ACTH AUC (30 min to 4 h) compared to placebo: increase
  ACTH AUC (2 h to 4 h) compared with placebo: reduction was not seen
[2]; single oral dose 50 mg
  ACTH AUC (30 min to 4 h) compared to placebo: non-significant reduction
  ACTH AUC (2 h to 4 h) compared with placebo: significant reduction
[2]; single oral dose 400 mg
  ACTH AUC (30 min to 4 h) compared to placebo: significant reduction
  ACTH AUC (2 h to 4 h) compared with placebo: significant reduction
[3]
  effects on 17-OHP and ACTH, 300 mg dose compared with 600 mg dose: nearly identical effects
[4]
  duration of significant lowering of plasma ACTH levels: up to 5 hours

## CC[C@@H](C)Nc1nc(C)nc2c(-c3ccc(OC)nc3C)c(C)nn12 [pexacerfont, N-[(2R)-butan-2-yl]-8-(6-methoxy-2-methylpyridin-3-yl)-2,7-dimethylpyrazolo[1,5-a][1,3,5]triazin-4-amine]
CRF1 receptor; [5]
  Rate constant (association k1 or dissociation k−1): 0.049 ± 0.001 min⁻¹
CRF1 receptor; association rate constant
  Rate constant (association k1 or dissociation k−1): 2.6 ± 0.1 10^6M^−1min^−1
CRF1 receptor
  Dissociation t1/2: 14 min

## CC[C@H]1Cn2nc(-c3ccc(Cl)cc3Cl)c3nc(C)cc(c32)N1CC1CC1.CS(=O)(=O)O [NBI-35965]
CRF1 receptor
  Ki: 2.3 nM
  Dissociation t1/2: 16 min
CRF1 receptor; [5]
  Rate constant (association k1 or dissociation k−1): 0.048 ± 0.005 min⁻¹
CRF1 receptor; association rate constant
  Rate constant (association k1 or dissociation k−1): 20 ± 2 10^6M^−1min^−1
[1]; 10 mg/kg
  time by which ACTH level returned to the vehicle level: ≤ 2 h
[1]
  effect on plasma ACTH, acute: reduced ACTH acutely

## CCCCN(CC)c1nc(C)nc2c1c(C)c(C)n2-c1c(C)cc(C)cc1C [antalarmin, N-butyl-N-ethyl-2,5,6-trimethyl-7-(2,4,6-trimethylphenyl)pyrrolo[3,2-e]pyrimidin-4-amine]
CRF1 receptor
  Ki: 3.9 nM
  Dissociation t1/2: 53 min
CRF1 receptor; [5]
  Rate constant (association k1 or dissociation k−1): 0.013 ± 0.002 min⁻¹
CRF1 receptor; association rate constant
  Rate constant (association k1 or dissociation k−1): 3.4 ± 0.6 10^6M^−1min^−1

## Cc1nnc2n1-c1ccc(Cl)cc1C(c1ccccc1)=NC2 [alprazolam]
[2]; single dose alprazolam 0.75 mg
  ACTH AUC (30 min to 4 h) compared to placebo: significant reduction
